In PMC11868595, “Safety, pharmacokinetics and efficacy of HA121-28 in patients with advanced solid tumors and RET fusion-positive non-small-cell lung cancer: a multicenter, open-label, single-arm phase 1/2 trial” (Signal Transduction and Targeted Therapy, 2025):
Where two headings read alike, the source gives them in different places. Marks after values point to notes of the source that are not given here.

Experiments:
[1] = system: human gastric cancer SGC-7901 tumors; test: SGC-7901 tumors in nude mice; type: in vivo
From the text: (§1) was higher than that of vandetanib .
as §1
Table S16. Efficacy of HA121-28 on human gastric cancer SGC-7901 tumors

[2] = system: human esophageal cancer ECA-109 tumors; test: ECA-109 tumors in nude mice; type: in vivo; settings: 8 mg/kg
[3] = system: human esophageal cancer KYSE-150 xenografts; test: KYSE-150 xenografts in nude mice; type: in vivo
[4] = system: RET fusion-positive NSCLC; settings: cited from earlier work
[5] = ref Phase I clinical study results of vandetanib; cited from earlier work
[6] = system: human thyroid cancer TT tumors; test: TT tumors in nude mice; type: in vivo; settings: TT tumors
From the text: as §1, §1
Table S15. Efficacy of HA121-28 on human thyroid cancer TT tumors

[7] = system: TT cells; test: Tumor cell proliferation in vitro; type: cell-based, human; settings: Homo sapiens
[8] = system: SGC-7901 cells; test: Tumor cell proliferation in vitro; type: cell-based, human; settings: Homo sapiens, SGC-7901; SGC7901
[9] = system: A431 cells; test: Tumor cell proliferation in vitro; type: cell-based, human; settings: Homo sapiens, A-431, read-out: IC50, proliferation
[10] = system: A375 cells; test: Tumor cell proliferation in vitro; type: cell-based, human; settings: Homo sapiens, A-375
[11] = system: EGFR and ERK activation; test: EGF-stimulated activation of EGFR and ERK in A431 cells; type: cell-based, human; settings: 10 ng/mL EGF, concentration-dependent
[12] = system: HUVEC cells; test: cells; settings: Homo sapiens
[13] = system: VEGFR and ERK activation; test: VEGF165-stimulated activation of VEGFR and ERK in HUVEC cells; type: cell-based, human; settings: 50 ng/mL VEGF165, concentration-dependent
[14] = system: 8305C cells; test: Tumor cell proliferation in vitro; type: cell-based; settings: Homo sapiens
[15] = system: CFPAC-1 cells; test: Tumor cell proliferation in vitro; type: cell-based; settings: Homo sapiens
[16] = system: BEL-7402 cells; test: Tumor cell proliferation in vitro; type: cell-based; settings: Homo sapiens, Bel-7402; read-out: IC50, proliferation
[17] = system: human melanoma A375 tumors; test: A375 tumors in nude mice; type: in vivo
[18] = system: A498 cells; test: Tumor cell proliferation in vitro; type: cell-based; settings: Homo sapiens
[19] = system: KYSE-150 cells; test: Tumor cell proliferation in vitro; type: cell-based, human; settings: Homo sapiens, KYSE-150; read-out: IC50, proliferation
[20] = system: HCT116 cells; test: Tumor cell proliferation in vitro; type: cell-based; settings: Homo sapiens, HCT-116

N#CC1(c2ccc(NC(=O)c3cccnc3NCc3ccncc3)cc2)CCCC1 [Apatinib]
RTV ±SD ([1]; 200 mg/kg): 4.2±1.2 | T/C ([1]; 200 mg/kg): 26.5% | Terminal Tumor Volume ([1]; 200 mg/kg): 793.5±324.4** mm^3

N.N.[Cl][Pt][Cl] [Cisplatin]
RTV ±SD [2]: 6.4±2.9 | T/C [2]: 62.0% | Terminal Tumor Volume [2]: 1,580.0±952.4 mm^3 | RTV X±SD ([3]; 10 mg/kg): 5.0±3.9 | T/C ([3]; 10 mg/kg): 32.6% | Terminal Tumor Volume ([3]; 10 mg/kg): 694.4±237.4** mm^3

CO[C@]1(C(=O)N[C@@H](C)c2ccc(-n3cc(F)cn3)nc2)CC[C@H](c2nc(C)cc(Nc3cc(C)[nH]n3)n2)CC1 [Pralsetinib]
ORR ([4]; platinum-pretreated patients ref 38): 61%

COc1ccc(CN2C3CC2CN(c2ccc(-c4cc(OCC(C)(C)O)cn5ncc(C#N)c45)cn2)C3)cn1 [Selpercatinib]
ORR ([4]; platinum-pretreated patients ref 37): 61%

COc1cc2c(Nc3ccc(Br)cc3F)ncnc2cc1OCC1CCN(C)CC1 [vandetanib, reference compound]
MTD [5]: 500 mg/day | RTV ±SD ([6]; 25 mg/kg): 2.1±1.0 | T/C ([6]; 25 mg/kg): 34.1% | Terminal Tumor Volume ([6]; 25 mg/kg): 302.4±91.1** mm^3 | RTV ±SD ([6]; 50 mg/kg): 1.0±0.4 | T/C ([6]; 50 mg/kg): 17.0% | Terminal Tumor Volume ([6]; 50 mg/kg): 155.5±82.1** mm^3 | RTV ±SD ([6]; 75 mg/kg): 0.5±0.2 | T/C ([6]; 75 mg/kg): 8.9% | Terminal Tumor Volume ([6]; 75 mg/kg): 100.1±62.5** mm^3 | IC50 [7]: 3.57 ± 0.0382 µM | IC50 [8]: 4.37 ± 0.441 µM | IC50 [9]: 1.14 ± 0.255 µM | IC50 [10]: 2.19 ± 0.318 µM | activation of EGFR and downstream ERK [11]: significantly inhibited | IC50 [12]: 0.117 µM | activation of VEGFR and downstream ERK [13]: significantly inhibited | RTV X±SD ([3]; 12.5 mg/kg): 5.2±1.9 | T/C ([3]; 12.5 mg/kg): 34.2% | Terminal Tumor Volume ([3]; 12.5 mg/kg): 847.0±247.2** mm^3 | RTV X±SD ([3]; 25 mg/kg): 2.6±0.7 | T/C ([3]; 25 mg/kg): 16.8% | Terminal Tumor Volume ([3]; 25 mg/kg): 489.8±273.9** mm^3 | RTV X±SD ([3]; 50 mg/kg): 1.3±0.6 | T/C ([3]; 50 mg/kg): 8.4% | Terminal Tumor Volume ([3]; 50 mg/kg): 273.9±189.8** mm^3 | IC50 [14]: 1.25 ± 0.0963 µM | IC50 [15]: 0.336 ± 0.01 µM | IC50 [16]: 15.1 ± 1.13 µM | RTV ±SD ([17]; 12.5 mg/kg): 22.1±17.2 | T/C ([17]; 12.5 mg/kg): 108.1% | Terminal Tumor Volume ([17]; 12.5 mg/kg): 2824.1±1001.2 mm^3 | RTV ±SD ([17]; 25 mg/kg): 11.4±4.7 | T/C ([17]; 25 mg/kg): 55.7% | Terminal Tumor Volume ([17]; 25 mg/kg): 1719.9±822.4 mm^3 | RTV ±SD ([17]; 50 mg/kg): 7.2±1.4 | T/C ([17]; 50 mg/kg): 35.0% | IC50 [18]: 1.03 ± 0.0427 µM | RTV ±SD ([1]; 50 mg/kg): 3.6±1.7 | T/C ([1]; 50 mg/kg): 23.0% | Terminal Tumor Volume ([1]; 50 mg/kg): 690.9±259.8** mm^3 | RTV ±SD ([1]; 75 mg/kg): 2.3±1.0 | T/C ([1]; 75 mg/kg): 14.3% | Terminal Tumor Volume ([1]; 75 mg/kg): 486.9±221.2** mm^3 | IC50 [19]: 1.5 ± 0.135 µM | IC50 [20]: 3.19 ± 0.688 µM
